Some test systems named below: OVCAR-8 ovarian; NCI-H23 lung; HL-60(TB) leukemia; MDA-MB-231 breast; SNB-75 CNS; HS 578T breast; IGROV1 ovarian; NCI-H522 lung; M14 melanoma; A549 NSCLC; A498 renal; EKVX NSCLC; SK-MEL-5 melanoma; DU-145 prostate; UACC-62 melanoma; OVCAR-3 ovarian; PC-3 prostate; U251 CNS; T-47D breast; HCC-2998 colon.
Assay in all cases: NCI tumour cell line growth inhibition, 48 h

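The compound was tested at five concentrations on cells cultured in 96-well plates, with a 48-hour exposure period. TGI: concentration producing complete growth inhibition.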

Consider `O=c1nc(N2CCCCC2)sc2[nH]c3ccccc3c12`, for which the TGI in the test on OVCAR-8 ovarian was greater than 100 µM; in the test with NCI-H23 lung it was 26.2 µM; in the test with HL-60(TB) leukemia, greater than 100 µM; in the test with MDA-MB-231 breast it was greater than 100 µM; in the test with SNB-75 CNS, greater than 100 µM; in the test with HS 578T breast, greater than 100 µM. Moreover, the TGI in the test on IGROV1 ovarian, in the test with NCI-H522 lung, with M14 melanoma, with A549 NSCLC, with A498 renal and in the test with EKVX NSCLC was greater than 100 µM throughout. In addition, the TGI in the test on SK-MEL-5 melanoma, in the test on DU-145 prostate, in the test with UACC-62 melanoma, with OVCAR-3 ovarian, with PC-3 prostate and in the test with U251 CNS was greater than 100 µM each time. Further, the TGI with T-47D breast was greater than 100 µM.
As for `O=C(c1ccc(Cl)c(Cl)c1)N(C(=S)OC12CC3CC(CC(C3)C1)C2)c1ccccc1`, the TGI was greater than 100 µM with OVCAR-8 ovarian; greater than 100 µM with NCI-H23 lung; 69.9 µM with HL-60(TB) leukemia; greater than 100 µM in the test with MDA-MB-231 breast; greater than 100 µM in the test on SNB-75 CNS; greater than 100 µM in the test on HS 578T breast. The TGI was 41.7 µM with NCI-H522 lung; 48.3 µM with M14 melanoma; greater than 100 µM with A549 NSCLC; greater than 100 µM in the test on A498 renal; 72.5 µM in the test on EKVX NSCLC; 40.1 µM with SK-MEL-5 melanoma. For the same molecule, the TGI in the test with DU-145 prostate was greater than 100 µM; in the test with UACC-62 melanoma it was 98.5 µM; in the test on OVCAR-3 ovarian, greater than 100 µM; with PC-3 prostate, greater than 100 µM; in the test on U251 CNS, greater than 100 µM; with T-47D breast it was greater than 100 µM. The TGI in the test with HCC-2998 colon is greater than 100 µM.
Take `CC1CCC2C(C)C(OC(=O)CCC(=O)O)OC3OC4(C)CCC1C32OO4` (stereo not drawn): the TGI in the test on OVCAR-8 ovarian is greater than 100 µM; with HL-60(TB) leukemia, 4.65 µM; in the test with MDA-MB-231 breast it was greater than 100 µM; with SNB-75 CNS it was greater than 100 µM; in the test on HS 578T breast, greater than 100 µM; in the test with IGROV1 ovarian, 23.1 µM. For the same molecule, the TGI is greater than 100 µM in the test on M14 melanoma; 29.9 µM with A549 NSCLC; greater than 100 µM with A498 renal; 32.7 µM in the test on EKVX NSCLC; 17.7 µM with SK-MEL-5 melanoma; 63.4 µM in the test with DU-145 prostate. Further, the TGI is greater than 100 µM in the test with UACC-62 melanoma; greater than 100 µM in the test on OVCAR-3 ovarian; greater than 100 µM with PC-3 prostate; 31.3 µM in the test with U251 CNS; greater than 100 µM in the test on T-47D breast; 54.3 µM in the test with HCC-2998 colon.
In the case of `COC(=O)C1=C(C)NC(CF)=C(C(=O)OC)C1c1cccc2c(=O)c3ccccc3oc12` (stereo not drawn), the TGI with OVCAR-8 ovarian, with NCI-H23 lung, in the test on HL-60(TB) leukemia, with MDA-MB-231 breast, in the test with SNB-75 CNS and with HS 578T breast was greater than 100 µM throughout. For the same molecule, the TGI with IGROV1 ovarian was 18.9 µM; in the test on NCI-H522 lung, greater than 100 µM; in the test with A549 NSCLC it was greater than 100 µM; in the test on A498 renal it was 94.5 µM; in the test with EKVX NSCLC it was greater than 100 µM; with SK-MEL-5 melanoma it was greater than 100 µM. For the same molecule, the TGI in the test with DU-145 prostate is greater than 100 µM; in the test with UACC-62 melanoma, greater than 100 µM; with OVCAR-3 ovarian, 66.8 µM; in the test with PC-3 prostate, 8.57 µM; in the test on T-47D breast it was greater than 100 µM; in the test on HCC-2998 colon, greater than 100 µM.
On to `Cc1c(CN2CCOCC2)c(CN2CCOCC2)c(C)n1-c1ccc(Cl)cn1`, for which the TGI in the test with OVCAR-8 ovarian, with NCI-H23 lung, in the test with MDA-MB-231 breast, in the test on SNB-75 CNS, in the test on HS 578T breast and in the test on IGROV1 ovarian was greater than 100 µM throughout. The TGI in the test on NCI-H522 lung, in the test with M14 melanoma, in the test on A549 NSCLC, with A498 renal, with EKVX NSCLC and in the test on SK-MEL-5 melanoma was greater than 100 µM in each case. Further, the TGI with DU-145 prostate, in the test with UACC-62 melanoma, in the test with OVCAR-3 ovarian, with PC-3 prostate, with U251 CNS and with T-47D breast was greater than 100 µM each time. Besides, the TGI with HCC-2998 colon was greater than 100 µM.
As for `CC1=C(C)C2(C#N)C(=O)N3C(=NC(c4ccco4)NC3c3ccco3)C2(C#N)C(c2ccco2)N1` (stereo not drawn), the TGI in the test on OVCAR-8 ovarian, with NCI-H23 lung, in the test with HL-60(TB) leukemia, in the test with MDA-MB-231 breast, in the test with HS 578T breast and in the test with IGROV1 ovarian was greater than 100 µM in each case. Besides, the TGI in the test with NCI-H522 lung, with M14 melanoma, with A549 NSCLC, in the test on A498 renal, in the test on EKVX NSCLC and in the test on SK-MEL-5 melanoma was greater than 100 µM throughout. In addition, the TGI in the test on DU-145 prostate, with UACC-62 melanoma, in the test with PC-3 prostate, in the test on U251 CNS, in the test on T-47D breast and with HCC-2998 colon was greater than 100 µM throughout.
Consider `CN1CC=C(C#CC(C)(C)O)CC1`, for which the TGI in the test on OVCAR-8 ovarian, in the test on NCI-H23 lung, in the test on HL-60(TB) leukemia, in the test on MDA-MB-231 breast, with SNB-75 CNS and in the test on HS 578T breast was greater than 37.5 µM each time. Moreover, the TGI in the test with IGROV1 ovarian, with M14 melanoma, with A549 NSCLC, with EKVX NSCLC, with SK-MEL-5 melanoma and with DU-145 prostate was greater than 37.5 µM throughout. Besides, the TGI with UACC-62 melanoma, in the test on OVCAR-3 ovarian, in the test on PC-3 prostate, in the test with U251 CNS, with T-47D breast and in the test with HCC-2998 colon was greater than 37.5 µM in each case.
With `CSc1ccccc1NC1=NCCO1`, the TGI in the test on OVCAR-8 ovarian, in the test with NCI-H23 lung, in the test with HL-60(TB) leukemia, in the test with MDA-MB-231 breast, in the test on HS 578T breast and with IGROV1 ovarian was greater than 100 µM in each case. The TGI in the test on NCI-H522 lung, in the test on M14 melanoma, in the test on A549 NSCLC, in the test on A498 renal, in the test with EKVX NSCLC and in the test with SK-MEL-5 melanoma was greater than 100 µM each time. The TGI with DU-145 prostate, in the test on UACC-62 melanoma, in the test on OVCAR-3 ovarian, with PC-3 prostate, with U251 CNS and with T-47D breast was greater than 100 µM throughout. This molecule also showed a TGI in the test on HCC-2998 colon greater than 100 µM.

The values above are taken from PubChem BioAssay (NCI).
